Data reported in ChEMBL document CHEMBL1201862, “PubChem BioAssay data set” (2004).
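Compound exposure: 48 hours, 5 concentrations, 96-well plates. Here, GI50 denotes the concentration required for 50% inhibition of growth.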 The source made the active and inactive calls. Rule as the data show it: active = GI50 up to about 1.1 µM and inactive = higher.

Tests used:
Experiment in all cases: NCI-60 cell line screen, 48 h
[1] = tested on: MCF7
[2] = tested on: HOP-62
[3] = tested on: SR
[4] = tested on: HCC 2998
[5] = tested on: PC-3
[6] = tested on: SK-MEL-5
[7] = tested on: RXF 393
[8] = tested on: M19-MEL
[9] = tested on: HCT-15
[10] = tested on: K562
[11] = tested on: EKVX
[12] = tested on: COLO 205
[13] = tested on: MOLT-4
[14] = tested on: SF-268
[15] = tested on: HOP-92
[16] = tested on: BT-549
[17] = tested on: HT-29
[18] = tested on: A498
[19] = tested on: CCRF-CEM
[20] = tested on: NCI-H23

For `C/C1=C\[C@@H](O)C(=O)/C=C/C=C\c2csc(n2)[C@@H](C)NC(=O)C[C@@]2(CC1)[S+]([O-])SC(=O)[C@]2(C)O` (stereo not given in full) [LEINAMYCIN], the GI50 [1] was 0.499 nM (active), the GI50 [2] was 130 nM (active) and the GI50 [3] was 3.27 nM (active). The GI50 [4] was 184 nM (active), the GI50 [5] was 12.8 nM (active) and the GI50 [6] was 6.73 nM (active). For the same compound, the GI50 [7] was 12.7 nM (active), the GI50 [8] was 34.4 nM (active) and the GI50 [9] was 13.4 nM. The GI50 [10] was 4.56 nM (active), the GI50 [11] was 261 nM (active) and the GI50 [12] was 14.9 nM (active). For the same compound, the GI50 [13] was 4.86 nM (active), the GI50 [14] was 27.2 nM (active) and the GI50 [15] was 2.28 nM (active). The GI50 [16] was 1.51 nM (active), the GI50 [17] was 40 nM (active) and the GI50 [18] was 10 nM (active). The GI50 [19] was 1.05 nM (active) and the GI50 [20] was 5.94 nM (active).
